Data: ChEMBL document CHEMBL3860055, “Design, synthesis and in vitro evaluation of amidoximes as histone deacetylase inhibitors for cancer therapy” (Bioorg Med Chem Lett, 2016)

How the values were obtained:
[1] = biological target: Histone deacetylase (HDAC1 and HDAC2) (Homo sapiens, UniProt Q13547+Q92769); assay: Inhibition of HDAC1/HDAC2 in human HeLa cell nuclear extract preincubated for 20 mins followed by addition of HDAC green as substrate measured after 60 mins by fluorescence analysis; type: cell-based
[2] = Antiproliferative activity against human HCT116 cells measured after 72 hrs by WST1 assay; type: functional, cell-based; details: HCT-116, 72 h
[3] = Antiproliferative activity against human A549 cells measured after 72 hrs by WST1 assay; type: functional, cell-based; details: A549, 72 h
[4] = Cell cycle arrest in human A549 cells assessed as accumulation at G1-phase at 26 uM measured after 24 hrs by propidium iodide staining based flow cytometric analysis (reference value: 63%); type: functional
[5] = Cell cycle arrest in human A549 cells assessed as accumulation at S-phase at 26 uM measured after 24 hrs by propidium iodide staining based flow cytometric analysis (reference value: 7%); type: functional
[6] = Cell cycle arrest in human A549 cells assessed as accumulation at G2/M-phase at 26 uM measured after 24 hrs by propidium iodide staining based flow cytometric analysis (reference value: 27%); type: functional
[7] = Cell cycle arrest in human A549 cells assessed as accumulation at G1-phase at 157 uM measured after 24 hrs by propidium iodide staining based flow cytometric analysis (reference value: 63%); type: functional
[8] = Cell cycle arrest in human A549 cells assessed as accumulation at S-phase at 157 uM measured after 24 hrs by propidium iodide staining based flow cytometric analysis (reference value: 7%); type: functional
[9] = Cell cycle arrest in human A549 cells assessed as accumulation at G2/M-phase at 157 uM measured after 24 hrs by propidium iodide staining based flow cytometric analysis (reference value: 27%); type: functional
[10] = Cell cycle arrest in human HCT116 cells assessed as accumulation at G1-phase at 26 uM measured after 24 hrs by propidium iodide staining based flow cytometric analysis (reference value: 59%); type: functional; details: HCT-116
[11] = Cell cycle arrest in human HCT116 cells assessed as accumulation at S-phase at 26 uM measured after 24 hrs by propidium iodide staining based flow cytometric analysis (reference value: 8%); type: functional; details: HCT-116
[12] = Cell cycle arrest in human HCT116 cells assessed as accumulation at G2/M-phase at 26 uM measured after 24 hrs by propidium iodide staining based flow cytometric analysis (reference value: 30%); type: functional; details: HCT-116
[13] = Cell cycle arrest in human HCT116 cells assessed as accumulation at G1-phase at 157 uM measured after 24 hrs by propidium iodide staining based flow cytometric analysis (reference value: 59%); type: functional; details: HCT-116
[14] = Cell cycle arrest in human HCT116 cells assessed as accumulation at S-phase at 157 uM measured after 24 hrs by propidium iodide staining based flow cytometric analysis (reference value: 8%); type: functional; details: HCT-116
[15] = Cell cycle arrest in human HCT116 cells assessed as accumulation at G2/M-phase at 157 uM measured after 24 hrs by propidium iodide staining based flow cytometric analysis (reference value: 30%); type: functional; details: HCT-116
[16] = Cell cycle arrest in human A549 cells assessed as accumulation at G2/M-phase measured after 24 hrs by propidium iodide staining based flow cytometric analysis; type: functional

Row | Compound | IC50 [1] | EC50 [2] | EC50 [3] | also measured
1 | N/C(=N\O)c1ccc(NC(=O)CNCCc2ccccc2)cc1 | 0.093 µM | 26 µM | 157 µM | Activity [4]: 54%; Activity [5]: 7%; Activity [6]: 36%; Activity [7]: 22%; Activity [8]: 9%; Activity [9]: 68%; Activity [10]: 31%; Activity [11]: 7%; Activity [12]: 58%; Activity [13]: 3%; Activity [14]: 5%; Activity [15]: 87%; Activity [16]: Dose-dependent effect
2 | CCCCNCCCCC(=O)Nc1ccc(/C(N)=N/O)cc1 | > 1 µM | 516 µM | > 1000 µM | –
3 | CCCCNCCC(=O)Nc1ccc(/C(N)=N/O)cc1 | 0.528 µM | 153 µM | 881 µM | –
4 | CCCCCCNCCCC(=O)Nc1ccc(/C(N)=N/O)cc1 | > 1 µM | 312 µM | > 1000 µM | –
5 | CCCCNCC(=O)Nc1ccc(/C(N)=N/O)cc1 | 0.282 µM | 83 µM | 395 µM | –
6 | O=C(NCCc1ccccc1)Nc1ccc(C(=O)NO)cc1 | 0.582 µM | 175 µM | > 1000 µM | –
7 | N/C(=N\O)c1ccc(NC(=O)CCNCCc2ccccc2)cc1 | 0.273 µM | 69 µM | 330 µM | –
8 | CCCCNCCCC(=O)Nc1ccc(/C(N)=N/O)cc1 | 0.723 µM | 267 µM | > 1000 µM | –
9 | N/C(=N\O)c1ccc(NC(=O)CCCNCCc2ccccc2)cc1 | 0.697 µM | 218 µM | > 1000 µM | –
10 | N/C(=N\O)c1ccc(NC(=O)NCCc2ccccc2)cc1 | 0.304 µM | 91 µM | 463 µM | –
11 | CCCCCCNCCC(=O)Nc1ccc(/C(N)=N/O)cc1 | 0.602 µM | 193 µM | > 1000 µM | –
12 | CCCCCCNCCCCC(=O)Nc1ccc(/C(N)=N/O)cc1 | > 1 µM | > 1000 µM | > 1000 µM | –
13 | N/C(=N\O)c1ccc(NC(=O)CCCCNCCc2ccccc2)cc1 | > 1 µM | 691 µM | > 1000 µM | –
14 | CCCCCCNC(=O)Nc1ccc(/C(N)=N/O)cc1 | 0.599 µM | 195 µM | > 1000 µM | –
15 | CCCCCCNCC(=O)Nc1ccc(/C(N)=N/O)cc1 | 0.381 µM | 124 µM | 658 µM | –
16 | CCCCNC(=O)Nc1ccc(/C(N)=N/O)cc1 | 0.591 µM | 186 µM | > 1000 µM | –
